Measurements taken from patent US10196657B2, “Methods of producing 7-carbon chemicals via methyl-ester shielded carbon chain elongation” (INVISTA North America S.á r.l., priority 2012, dated 2019).

Tests used:
Type in all cases: biochemical
[1] = ω-transaminase activity assay, 7-aminoheptanol to 7-oxoheptanol
Protocol: A nucleotide sequence encoding an N-terminal His-tag was added to the Chromobacterium violaceum, Pseudomonas syringae and Rhodobacter sphaeroides genes encoding the ω-transaminases of SEQ ID NOs: 8, 10 and 11, respectively (see FIGS. 7F and 7G) such that N-terminal HIS tagged ω-transaminases could be produced. The modified genes were cloned into a pET21a expression vector under the T7 promoter. Each expression vector was transformed into a BL21[DE3] E. coli host. Each resulting recombinant E. coli strain were cultivated at 37° C. in a 250 mL shake flask culture containing 50 mL LB media and antibiotic selection pressure, with shaking at 230 rpm. Each culture was induced overnight at 16° C. using 1 mM IPTG.
(§1) The pellet from each induced shake flask culture was harvested via centrifugation. Each pellet was resuspended and lysed via sonication. The cell debris was separated from the supernatant via centrifugation and the cell free extract was used immediately in enzyme activity assays.
Enzyme activity assays in the reverse direction (i.e., 7-aminoheptanol to 7-oxoheptanol) were performed in a buffer composed of a final concentration of 50 mM HEPES buffer (pH=7.5), 10 mM 7-aminoheptanol, 10 mM pyruvate, and 100 μM pyridoxyl 5′ phosphate. […] The formation of L-alanine was quantified via RP-HPLC.

[2] = ω-transaminase activity assay, reverse direction (7-aminoheptanoate to pimelate semialdehyde); details: cell free extract, 10 mM 7-aminoheptanoate, 10 mM pyruvate, 25° C., 4 h; against empty vector control; FIG. 15
Protocol: (§2) A sequence encoding an N-terminal His-tag was added to the genes from Chromobacterium violaceum, Pseudomonas syringae, Rhodobacter sphaeroides, and Vibrio Fluvialis encoding the ω-transaminases of SEQ ID NOs: 8, 10, 11 and 13, respectively (see FIGS. 7F and 7G) such that N-terminal HIS tagged ω-transaminases could be produced. Each of the resulting modified genes was cloned into a pET21a expression vector under control of the T7 promoter and each expression vector was transformed into a BL21[DE3] E. coli host. The resulting recombinant E. coli strains were cultivated at 37° C. in a 250 mL shake flask culture containing 50 mL LB media and antibiotic selection pressure, with shaking at 230 rpm. Each culture was induced overnight at 16° C. using 1 mM IPTG.
as §1
Enzyme activity assays in the reverse direction (i.e., 7-aminoheptanoate to pimelate semialdehyde) were performed in a buffer composed of a final concentration of 50 mM HEPES buffer (pH=7.5), 10 mM 7-aminoheptanoate, 10 mM pyruvate and 100 μM pyridoxyl 5′ phosphate. […] The formation of L-alanine from pyruvate was quantified via RP-HPLC.

[3] = ω-transaminase activity assay, forward direction (pimelate semialdehyde to 7-aminoheptanoate)
Protocol: as §2, §1
Enzyme activity in the forward direction (i.e., pimelate semialdehyde to 7-aminoheptanoate) was confirmed for the transaminases of SEQ ID NO 10, SEQ ID NO 11 and SEQ ID NO 13. […] The formation of pyruvate was quantified via RP-HPLC.

acceptance of 7-aminoheptanol as substrate (formation of L-alanine, RP-HPLC) ([1]; cell free extract, 10 mM 7-aminoheptanol, 10 mM pyruvate, 25° C., 4 h, against empty vector control, FIG. 19): accepted 7-aminoheptanol as substrate | acceptance of 7-oxoheptanol as substrate, forming 7-aminoheptanol (concluded from reversibility) ([1]; concluded from reversibility of the ω-transaminase activity (Example 2)): accept 7-oxoheptanol as substrate | acceptance of 7-aminoheptanoate as substrate (formation of L-alanine from pyruvate, RP-HPLC) [2]: accepted 7-aminoheptanote as substrate
Substance: SEQ ID NO 11: Rhodobacter sphaeroides ω-transaminase, Genbank Accession No. ABA81135.1
acceptance of pimelate semialdehyde as substrate (formation of pyruvate from L-alanine, RP-HPLC) ([3]; cell free extract, 10 mM pimelate semialdehyde, 10 mM L-alanine, 25° C., 4 h, against empty vector control, FIG. 16): accepted pimelate semialdehyde as substrate | acceptance of pimelate semialdehyde as substrate, synthesizing 7-aminoheptanoate (conclusion from confirmed reversibility) ([3]; concluded from reversibility of the ω-transaminase activity): accepted pimelate semialdehyde as substrate
